Where a SMILES comes first, the peptide text is derived from it. Bridges are numbered along the chain shown (N, C = ends).
Columns and labels:
[1] = In vitro conversion in rat plasma; format: in vitro ADME; conditions: preliminary
[2] = Preliminary PK study in rat; format: in vivo; conditions: slow bolus IV injection of 49 mg/kg of NX210
Description: Therefore, NX210 PK in animals is followed by the measurement of its cyclic form NX218. First a preliminary PK study in rat was performed in order to validate the method for detecting NX218 in plasma then translated to monkey by performing a more robust PK study with repeated experiments. All PK studies were performed with NaCl 0.9% as vehicle.

| conversion by oxidation in rat plasma [1] | plasma concentration of NX218 over time [2] | SMILES |
| --- | --- | --- |
| rapidly converted into NX218 | – | N=C(N)NCCC[C@H](NC(=O)[C@H](CO)NC(=O)[C@H](CS)NC(=O)[C@H](CO)NC(=O)[C@H](CO)NC(=O)[C@H](Cc1c[nH]c2ccccc12)NC(=O)CNC(=O)[C@H](CO)NC(=O)[C@@H](N)Cc1c[nH]c2ccccc12)C(=O)N[C@@H](CO)C(=O)N[C@@H](CS)C(=O)NCC(=O)O [NX210, W-S-G-W-S-S-C-S-R-S-C-G] (H-WSGWSSCSRSCG-OH) |
| – | impossible to quantify from 3 hours | N=C(N)NCCC[C@@H]1NC(=O)[C@H](CO)NC(=O)[C@@H](NC(=O)[C@H](CO)NC(=O)[C@H](CO)NC(=O)[C@H](Cc2c[nH]c3ccccc23)NC(=O)CNC(=O)[C@H](CO)NC(=O)[C@@H](N)Cc2c[nH]c3ccccc23)CSSC[C@@H](C(=O)NCC(=O)O)NC(=O)[C@H](CO)NC1=O [NX218] (H-WSGWSSCSRSCG-OH; disulfide 7-11) |

From patent US20230073781A1, “Systemic administration of peptides for the treatment of spinal cord injury and/or for remyelination” (AXOLTIS PHARMA, priority 2019, published 2023)
